Where “and” joins values, the source holds several entries; their conditions need not be identical. Equal values may be shown once. Marks after values point to notes of the source that are not given here.
Assays:
target receptors = tested on: target receptors; set-up: method as in PMID 21204634; conditions: cited from earlier work
[1] = set-up: method as in PMID 21204634; conditions: dedicated ADME study; cited from earlier work
PDGFRβ = tested on: PDGFRβ; set-up: method as in Boehringer Ingelheim unpublished data, 14; conditions: PDGFRβ stimulation of primary lung fibroblasts; ref Boehringer Ingelheim unpublished data, 14; cited from earlier work
[2] = Population pharmacokinetic model of metabolite BIBF 1202 plasma concentrations in patients with NSCLC or IPF treated with nintedanib; assay type: in vivo, human
Excerpt: This population pharmacokinetic analysis pooled data from nintedanib treatment in four clinical studies; 1 Phase II (n = 73) and two Phase III trials in patients with NSCLC (LUME-Lung 1 (n = 652) and LUME-Lung 2 (n = 347)) and one Phase II trial (TOMORROW, n = 343) in patients with IPF [11] (data from IPF Phase III trials were not available at time of analysis). An overview of these studies is provided in Online Resource Table S1. In the NSCLC Phase II trial, patients with locally advanced or metastatic relapsed NSCLC in whom first- or second line platinum-based chemotherapy had failed and were randomized to nintedanib 150 or 250 mg twice-daily. Treatment continued until disease progression or intolerable toxicity. In the NSCLC Phase III trials, nintedanib 200 mg twice-daily or placebo was given in repeated 21 day treatment cycles in combination with single infusions of docetaxel 75 mg/m^2 (LUME-Lung 1 trial) or pemetrexed 500 mg/m^2 (LUME-Lung 2 trial), administered on day 1 of each cycle. Treatment cycles were continued until disease progression or intolerable toxicity. In the Phase II trial in patients with IPF [11], patients were randomized to a 52-week treatment period with one of the four doses of nintedanib (50 mg once or twice-daily, 100, 150 mg twice-daily) or placebo. In all four trials, dose reductions and interruptions were allowed to manage adverse events. All studies were conducted in accordance with the Declaration of Helsinki and with approval of the local ethics committees. Written informed consent was obtained from all patients before study entry.
Blood sampling schema for measurement of nintedanib plasma concentrations varied. For all trials, at least two pre-dose and two post-dose blood samples were scheduled during treatment (see Online Resource Table S1). In addition, more extensive sampling was performed in the two Phase II trials. Nintedanib and BIBF 1202 plasma concentrations were analyzed by validated liquid chromatography–mass spectrometry (HPLC–MS/MS) methods. The calibration curves covered the range 0.5–500 ng/mL for nintedanib and 1–1000 ng/mL for BIBF 1202 in undiluted plasma samples and were linear over this range.
The population pharmacokinetic analysis was performed using non-linear mixed-effects modeling techniques (NONMEM, version VI 2.0, ICON Development Solutions, Ellicott City, Maryland, USA). The first-order conditional estimation algorithm with interaction was used. Data processing, diagnostic plots, and calculation of descriptive statistics were performed using R version 2.12.1 (http://www.rproject.org) and SAS version 9.2 (SAS Institute Inc, Cary, NC, USA). Bootstrap analysis was performed using Perl-speaks-NONMEM, version 3.5.3 [24, 25].
Using fixed pharmacokinetic parameter estimates from the nintedanib base model (typical values plus empirical Bayes estimates of individual η), the base model of BIBF 1202 was developed. Plasma concentrations of nintedanib and BIBF 1202 were reported in nM to account for differences in their molecular weight.
The covariate analysis for BIBF 1202 was based on the fixed pharmacokinetic parameters of the final nintedanib model and base model of BIBF 1202 and followed the same principles described for nintedanib (see Online Resource Table S3).
Model evaluation for BIBF 1202 was analogous to nintedanib, with the exception of the non-parametric bootstrap analysis.
Finally, after the sequential pharmacokinetic analysis for nintedanib and BIBF 1202, the parameters for the final models of nintedanib and BIBF 1202 were estimated simultaneously.
To illustrate individual covariate effects, the change in the median steady-state nintedanib and BIBF 1202 plasma concentration–time profiles were compared to the exposure in a typical patient. The typical patient was defined by baseline medians (continuous covariate) and modes (categorical covariate) of the respective covariates in the total analyzed population. […]

PDGFRα = tested on: PDGFRα; set-up: method as in Boehringer Ingelheim unpublished data, 14; conditions: PDGFRα stimulation of primary lung fibroblasts; ref Boehringer Ingelheim unpublished data, 14; cited from earlier work
mouse xenograft models = tested on: mouse xenograft models; set-up: method as in ref 7 = [7]; 7. European Medicines Agency (2014) Committee for Medicinal Products for Human Use (CHMP) Assessment Report for Vargatef (nintedanib), 25 September 2014. http://www.ema.europa.eu/docs/en_GB/document_l; conditions: cited from earlier work
[3] = tested on: VEGF or bFGF stimulation of human umbilical vascular endothelial cells; set-up: method as in Boehringer Ingelheim unpublished data, 14; conditions: VEGF or bFGF stimulation of HUVEC; ref Boehringer Ingelheim unpublished data, 14; cited from earlier work
[4] = Population pharmacokinetic analysis in healthy subjects after intravenous administration of nintedanib (one-compartment model); assay type: in vivo, human; conditions: healthy subjects, intravenous nintedanib; estimate (RSE%)
Excerpt: The pharmacokinetic profile of BIBF 1202 was best described by a one-compartment model with first-order elimination (see Online Resource Fig. S1 for model structure). To account for formation of BIBF 1202 in the intestine or via hepatic first-pass effect, a first-order absorption with lag time (ALAG2) was implemented as per nintedanib absorption. The relative bioavailability (F2) and the absorption-rate constant (k a2) were implemented as functions of nintedanib F1 and k a, respectively (substantial drop in OFV as compared to a model, where F2 and k a2 were estimated independently of F1 and k a). This parametrization accounted for correlations between nintedanib and BIBF 1202 parameters and replaced the full variance–covariance matrix which was not applied due to the sequential modeling approach used. The rate of formation of BIBF 1202 (k met) during nintedanib systemic elimination was accounted by defining it as a function of nintedanib clearance: k met = CL/V2*ffM, where CL and V2 denote the clearance and central volume of distribution of nintedanib respectively, and ffM denotes the proportion of the nintedanib elimination resulting in BIBF 1202 formation. Due to the lack of data for BIBF 1202 given as an intravenous (IV) infusion, several parameter estimates were not identifiable (ffM, BIBF 1202 apparent volume of distribution [V3/F]) and were, therefore, fixed. The value for ffM was derived from pharmacokinetic data after IV administration of nintedanib (Online Resource Table S4) and the ratio of V3/F–V2/F was fixed based on information observed in rats. […] In addition to the (inter-individual) variability of F2 induced by the variability in F1 (F2 being proportional to F1), additional IIV could be implemented for F2.
Table S4 Structural parameters for nintedanib and BIBF 1202 from a population pharmacokinetic analysis based on healthy subjects (n=23^a, 372 observations) after intravenous administration of nintedanib
One subject (3 mg dose) was excluded from analysis due to increasing plasma concentrations of nintedanib after end of infusion

[5] = final BIBF 1202 model (sequential fit), estimate (RSE%)
[6] = final BIBF 1202 model (sequential fit), reference Caucasian/Black origin = 1.00, estimate (RSE%)

SMILES: CN1CCN(CC(=O)N(C)c2ccc(N/C(=C3\C(=O)Nc4cc(C(=O)O[C@@H]5O[C@H](C(=O)O)[C@@H](O)[C@H](O)[C@H]5O)ccc43)c3ccccc3)cc2)CC1 [BIBF 1202 glucuronide]
- in vitro activity at the target receptors (target receptors): did not show in vitro activity

SMILES: CN1CCN(CC(=O)N(C)c2ccc(N/C(=C3\C(=O)Nc4cc(C(=O)O)ccc43)c3ccccc3)cc2)CC1 [BIBF 1202]
- metabolic ratio for AUC (BIBF 1202 to nintedanib) [1]: ~1
- metabolic ratio for Cmax (BIBF 1202 to nintedanib) [1]: ~1
- lower potency compared to nintedanib (PDGFRβ): 607 fold
- changes in BIBF 1202 exposure by ECOG performance status and LDH ([2]; covariates influencing BIBF 1202 but not nintedanib exposure): < 30%
- IIV in F2 ([2]; final BIBF 1202 model (sequential fit), estimate (RSE% on the variance scale)): 56.7 (8.60^f) CV% and 56.7 (8.60^e) CV%
- CL2/F (θCL2), apparent total body clearance for BIBF 1202 [2, 5]: 7.05 (6.37) L/h
- F2/F1 (θF2F1), ratio of relative bioavailabilities BIBF 1202 to nintedanib [2, 5]: 0.0110 (11.3)
- covariate effect on F2, θLDH_Breakpoint (breakpoint for LDH) [2, 5]: 688 (22.0) U/L
- covariate effect on F2, θWT [2, 5]: -0.848 (12.2)
- ka2/ka (θka2ka), ratio of absorption rate constants BIBF 1202 to nintedanib [2, 5]: 1.47 (8.16)
- covariate effect on F2, θLDH (coefficient for LDH [U/L]) ([2]; final BIBF 1202 model (sequential fit), hockey-stick function, estimate (RSE%)): 0.000656 (22.1)
- covariate effect on F2, θEthnicity: Asian origin (except for Indian) [2, 6]: 1.20 (4.83)
- covariate effect on F2, θEthnicity: Indian origin [2, 6]: 1.90 (13.5)
- covariate effect on F2, θECOG: ECOG≥1 ([2]; final BIBF 1202 model (sequential fit), reference ECOG=0 = 1.00, estimate (RSE%)): 1.16 (4.16)
- covariate effect on ka2, θTrial: NSCLC Phase II and IPF Phase II ([2]; final BIBF 1202 model (sequential fit), reference LUME-Lung 1 and LUME-Lung 2 = 1.00, estimate (RSE%)): 0.756 (7.72)
- covariate effect on ka2, θNSCLC_histology: non-adenocarcinoma ([2]; final BIBF 1202 model (sequential fit), reference adenocarcinoma = 1.00, estimate (RSE%)): 1.36 (8.90)
- share of BIBF 1202 in plasma formed systemically ([2]; final model, systemic formation rate fixed to the value from the IV study): about 8%
- upper limit of the predicted 2 h post-dose concentration for Indian patients ([2]; pcQPC of the final BIBF 1202 model, 95% prediction interval of simulated medians, steady state): 88 ng/mL
- F2/F1 (θF2F1) ([2]; simultaneous estimation): 0.0153 (–)
- IIV in F2 ([2]; simultaneous estimation): 47.9 (–) CV%
- covariate effect on F2, θECOG: ECOG≥1 ([2]; simultaneous estimation): 1.13 (–)
- covariate effect on F2, θEthnicity: Asian origin (except for Indian) ([2]; simultaneous estimation): 1.19 (–)
- covariate effect on F2, θEthnicity: Indian origin ([2]; simultaneous estimation): 1.81 (–)
- covariate effect on F2, θLDH (coefficient for LDH [U/L]) ([2]; simultaneous estimation): 0.00064 (–)
- covariate effect on F2, θLDH_Breakpoint (breakpoint for LDH) ([2]; simultaneous estimation): 683 (–) U/L
- covariate effect on F2, θWT ([2]; simultaneous estimation): -0.791 (–)
- covariate effect on ka2, θNSCLC_histology: non-adenocarcinoma ([2]; simultaneous estimation): 1.24 (–)
- covariate effect on ka2, θTrial: NSCLC Phase II and IPF Phase II ([2]; simultaneous estimation): 0.864 (–)
- ka2/ka (θka2ka) ([2]; simultaneous estimation): 1.14 (–)
- CL2/F (θCL2) ([2]; simultaneous estimation of nintedanib and BIBF 1202 models, RSE not available): 9.68 (–) L/h
- lower potency compared to nintedanib (PDGFRα): 265 fold
- efficacy in mouse xenograft models (mouse xenograft models): not effective
- lower potency compared to nintedanib [3]: 9–10 fold
- CL2, total body clearance for BIBF 1202 [4]: 0.513 (17.0) L/h
